Reference: paper PMC6269755, “In Vitro Antiprotozoal Activity of Triterpenoid Constituents of Kleinia odora Growing in Saudi Arabia” (Molecules, 2013)
Where two headings read alike, the source gives them in different places.

Legend:
[1] = tested on: T. cruzi Tulahuen CL2 (benznidazole-sensitive); test: Antitrypanosomal activity, T. cruzi on MRC-5 cells; type: cell-based, Trypanosoma cruzi; conditions: for IC50: pure compounds, 7 days; for T. cruzi SI: selectivity index vs MRC-5 cytotoxicity
Method: (§1) The integrated panel of microbial screens and standard screening methodologies were adopted as previously described. All assays were performed in triplicate at the Laboratory of Microbiology, Parasitology and Hygiene at the University of Antwerp (Belgium). […] Selectivity of activity was assessed by simultaneous evaluation of cytotoxicity on a fibroblast (MRC-5) cell line.
(§2) Trypanosoma brucei Squib-427 strain (suramin-sensitive) was cultured at 37 °C and 5% CO2 in Hirumi-9 medium, supplemented with 10% fetal calf serum (FCS). About 1.5 × 10^4 trypomastigotes/well were added to each well and parasite growth was assessed after 72 h at 37 °C by adding resazurin [35]. For Chagas disease, T. cruzi Tulahuen CL2 (benznidazole-sensitive) was maintained on MRC-5 cells in minimal essential medium (MEM) supplemented with 20 mM L-glutamine, 16.5 mM sodium hydrogen carbonate and 5% FCS. In the assay, 4 × 10^3 MRC-5 cells and 4 × 10^4 parasites were added to each well and after incubation at 37 °C for 7 days, Parasite growth was assessed by adding the […]. The color reaction was read at 540 nm after 4 h and absorbance values were expressed as a percentage of the blank controls.

[2] = tested on: Chloroquine-resistant P. falciparum K 1-strain; test: Antiplasmodial activity, Malstat (pLDH) assay; type: cell-based, Plasmodium falciparum; conditions: for IC50: 72 h, read-out: P. falciparum IC50; for P. falciparum SI: selectivity index vs MRC-5 cytotoxicity
Method: as §1
Chloroquine-resistant P. falciparum K 1-strain was cultured in human erythrocytes O^+ at 37 °C under a low oxygen atmosphere (3% O2, 4% CO2, and 93% N2) in RPMI-1640, supplemented with 10% human serum. Infected human red blood cells (200 μL, 1% parasitaemia, 2% haematocrit) were added to each well and incubated for 72 h. After incubation, test plates were frozen at −20 °C. Parasite multiplication was measured using the Malstat assay, a colorimetric method based on the reduction of 3-acetyl pyridine adenine dinucleotide (APAD) by parasite-specific lactate-dehydrogenase (pLDH).

[3] = tested on: L. infantum MHOM/MA(BE)/67 amastigotes; test: Antileishmanial activity, intracellular amastigotes in primary peritoneal mouse macrophages; type: cell-based, Leishmania infantum; conditions: for IC50: pure compounds, intracellular amastigotes, 5 days; for L. infantum SI: selectivity index vs MRC-5 cytotoxicity
Method: The integrated panel of microbial screens and standard screening methodologies were adopted as previously described. All assays were performed in triplicate at the Laboratory of Microbiology, Parasitology and Hygiene at the University of Antwerp (Belgium). […] Selectivity of activity was assessed by simultaneous evaluation of cytotoxicity on a fibroblast (MRC-5) cell line. […] L. infantum MHOM/MA(BE)/67 amastigotes were collected from the spleen of an infected donor hamster and used to infect primary peritoneal mouse macrophages. To determine in vitro antileishmanial activity, 3 × 10^4 macrophages were seeded in each well of a 96-well plate. After 2 days outgrowth, 5 × 10^5 amastigotes/well, were added and incubated for 2 h at 37 °C. Pre-diluted plant extracts were subsequently added and the plates were further incubated for 5 days at 37 °C and 5% CO2. Parasite burdens (mean number of amastigotes/macrophage) were microscopically assessed on 500 cells after Giemsa staining of the […] expressed as a percentage of the blank controls without plant extract.

[4] = tested on: Trypanosoma brucei Squib-427 strain (suramin-sensitive); test: Antitrypanosomal activity, T. brucei trypomastigotes, resazurin; type: cell-based; conditions: for IC50: 72 h, pure compounds; for T. brucei SI: selectivity index vs MRC-5 cytotoxicity
Method: as §1, §2

[5] = Cytotoxicity against MRC-5 cells, resazurin; type: cell-based; conditions: human, MRC-5 SV2 fibroblast cells, pure compounds
Method: as §1
MRC-5 SV2 cells were cultivated in MEM, supplemented with L-glutamine (20 mM), 16.5 mM sodium hydrogen carbonate and 5% FCS. For the assay, 10^4 MRC-5 cells/well were seeded onto the test plates containing the pre-diluted sample and incubated at 37 °C and 5% CO2 for 72 h. Cell viability was assessed fluorimetrically after 4 h of addition of resazurin. Fluorescence was measured (excitation 550 nm, emission 590 nm) and the results were expressed as % reduction in cell viability compared to control.

T. brucei = tested on: T. brucei; parameters: method as in PMID 21782916, PMID 17637068; conditions: ref 24, 25, cited from earlier work
T. cruzi = tested on: T. cruzi; parameters: method as in PMID 12802734; conditions: ref 26; cited from earlier work
L. donovani = conditions: cited from earlier work
P. falciparum = conditions: cited from earlier work; for IC50: converted value in brackets, read-out: antiplasmodial IC50
[6] = tested on: peripheral blood mononuclear cells; parameters: method as in PMID 22468852; conditions: ref 31; cited from earlier work
[7] = Trypanosoma cruzi, TULAHUEN, MRC5, 168 h
[8] = Plasmodium falciparum, pure compounds, K1 strain
[9] = Leishmania infantum, Macrophage, 120 h
[10] = at the highest concentration tested (64 µg/mL)

With `C[C@@H]1CC[C@]2(C)CC[C@]3(C)C(=C[C@@H](O)C4[C@@]5(C)CC[C@H](O)C(C)(C)C5CC[C@]43C)C2[C@H]1C` (stereo partly drawn) (hydrate or solvate) [Cmpd. 5, 3β,11α-Dihydroxyurs-12-ene] the melting point was 205 °C.

In the case of `O=C(Cn1ccnc1[N+](=O)[O-])NCc1ccccc1` [Benznidazole, reference compound], the IC50 [1, 7] is reported as 1.9 ± 0.3 µM.

`CCN(CC)CCCC(C)Nc1ccnc2cc(Cl)ccc12` (stereo not shown) [Chloroquine, reference compound] showed an IC50 ([2]; Plasmodium falciparum) of 0.3 ± 0.05 µM.

In the case of `C[C@H]1[C@H](C)CC[C@]2(C(=O)O)CC[C@]3(C)C(=CC[C@@H]4[C@@]5(C)CC[C@H](O)C(C)(C)[C@@H]5CC[C@]43C)[C@H]12` [Cmpd. 3, 3β-hydroxy-urs-12-en-28-oic acid], the IC50 [2, 8] is reported as 29.7 ± 5.9 µM, the “P. falciparum SI” value [2] is reported as less than 1 and the IC50 [3, 9] is reported as 7.4 ± 1.9 µM. For the same compound, the “L. infantum SI” value [3] was 1.5, the IC50 [1, 7] was 8.8 ± 2.3 µM and the “T. cruzi SI” value [1] was 1.3. For the same compound, the IC50 ([4]; Trypanosoma brucei) was 2.2 ± 0.6 µM, the “T. brucei SI” value [4] was 5.2 and the IC50 at 72 h [5] was 11.4 ± 2.1 µM. For the same compound, the IC50 (T. brucei; converted value in brackets) was 2.2 µM, the “T. brucei IC50” value (T. brucei) was 1.0 ± 0.2 µg/mL and the IC50 (T. cruzi) was 21 µM. For the same compound, the IC50 (L. donovani; converted value in brackets, ref 27) was 7.6 µM, the “L. donovani IC50” value (L. donovani; ref 27) was 3.5 µg/mL and the IC50 (P. falciparum; ref 28) was 6.8 µM. For the same compound, the IC50 (P. falciparum; ref 29) was 10.7 µM, the “antiplasmodial IC50” value (P. falciparum; ref 28) was 3.1 µg/mL and the “antiplasmodial IC50” value (P. falciparum; ref 29) was 4.9 µg/mL.

In the case of `C[C@H]1[C@H](C)CC[C@@]2(C)[C@@H]1C1=CC[C@@H]3[C@@]4(C)CC[C@H](O)C(C)(C)[C@@H]4CC[C@@]3(C)[C@]1(C)C[C@@H]2O` [Cmpd. 4, urs-12-ene-3β,16β-diol], the IC50 [2, 8] is reported as 9.3 to 9.9 µM, the IC50 ([2]; pure compounds, K1 strain) is reported as 9.7 ± 3.2 µM and the “P. falciparum SI” value [2] is reported as greater than 6.6. For the same compound, the “P. falciparum SI” value ([2]; listed as Brein (4)) was greater than 6.5, the IC50 [3, 9] was 9.3 to 9.9 µM and the IC50 [3] was 9.3 ± 2.2 µM. For the same compound, the “L. infantum SI” value [3] was greater than 6.9, the “L. infantum SI” value ([3]; listed as Brein (4)) was greater than 6.5 and the IC50 [1, 7] was 9.3 to 9.9 µM. For the same compound, the IC50 [1] was 9.9 ± 2.6 µM, the “T. cruzi SI” value [1] was greater than 6.5 and the “T. cruzi SI” value ([1]; listed as Brein (4)) was greater than 6.5. The IC50 ([4]; Trypanosoma brucei) was 2.3 ± 0.4 µM, the “T. brucei SI” value [4] was greater than 27.8 and the “T. brucei SI” value ([4]; listed as Brein (4)) was greater than 27.8. It also gave an IC50 at 72 h [5] greater than 64 µM and a melting point of 221 °C.

For `C[C@@H]1CC[C@]2(C)CC[C@]3(C)C(=C[C@@H](O)C4[C@@]5(C)CC[C@H](O)C(C)(C)C5CC[C@]43C)C2[C@H]1C` (stereo partly drawn) [Cmpd. 5, 3β,11α-Dihydroxyurs-12-ene], the IC50 [2, 8] was 23.9 ± 5.7 µM, the IC50 [3, 9] was 3.2 ± 0.9 µM and the “L. infantum SI” value [3] was greater than 20. The “L. infantum SI” value ([3]; listed as Compound 5) was greater than 20, the IC50 [1, 7] was 8.1 ± 1.8 µM and the “T. cruzi SI” value [1] was greater than 7.9. For the same compound, the IC50 ([4]; Trypanosoma brucei) was 7.9 µM, the IC50 [4] was 7.8 ± 1.8 µM and the “T. brucei SI” value [4] was greater than 8.2. It also gave an IC50 at 72 h [5] greater than 64 µM.

In the case of `C[C@@H]1CCC23CC[C@]4(C)[C@@](C=CC5[C@@]6(C)CC[C@H](O)C(C)(C)C6CC[C@]54C)(OC2=O)C3[C@H]1C` (stereo partly shown) [Cmpd. 6, 3-Hydroxy-13,28-epoxyurs-11-en-28-one], the IC50 [2, 8] is reported as greater than 64 µM, the “antiprotozoal activity (P. falciparum)” value [2, 10] is reported as “devoid of any antiprotozoal activity” and the IC50 [3, 9] is reported as greater than 64 µM. The “antiprotozoal activity (L. infantum)” value [3, 10] was “devoid of any antiprotozoal activity”, the IC50 [1, 7] was greater than 64 µM and the “antiprotozoal activity (T. cruzi)” value [1, 10] was “devoid of any antiprotozoal activity”. The IC50 ([4]; Trypanosoma brucei) was 40.9 ± 8.1 µM, the IC50 at 72 h [5] was greater than 64 µM and the IC50 (L. donovani; ref 31) was 192 µM. The “cytotoxicity towards peripheral blood mononuclear cells” value [6] was “without cytotoxicity”.

In the case of `CCCCCCCCCCCCCCCCOP(=O)([O-])OCC[N+](C)(C)C` [Miltefosine, reference compound], the IC50 [3, 9] is listed as 10.4 ± 2.1 µM and the IC50 (L. donovani; ref 31) is listed as 9.31 µM.

For `Cc1ccc(C(=O)Nc2ccc(S(=O)(=O)O)c3cc(S(=O)(=O)O)cc(S(=O)(=O)O)c23)cc1NC(=O)c1cccc(NC(=O)Nc2cccc(C(=O)Nc3cc(C(=O)Nc4ccc(S(=O)(=O)O)c5cc(S(=O)(=O)O)cc(S(=O)(=O)O)c45)ccc3C)c2)c1` [Suramine, reference compound], the IC50 ([4]; Trypanosoma brucei) was 0.03 ± 0.01 µM.
